Several values for one entry are separate records, joined by “and”; a condition that tells them apart may be missing. Equal values may be shown once.
Experiments:
human neutrophils = experiment: PMN transmigration assay (Salmonella typhimurium-infected T84 monolayer, HXA3/MRP2-driven neutrophil migration, MPO readout); format: cell-based
Method: PMN transmigration assay. T84 colorectal cancer cells were grown to confluence on the bottom side of 12 well polycarbonate membrane inserts of a 24 well Transwell® plate. The confluent growth of these epithelial cells results in physiologically-relevant apical (luminal) and basolateral surfaces in the transwells. […] The monolayer was then infected on the apical surface with Salmonella typhimurium for 2 hours to induce hepoxilin A3 (HXA3) efflux through the MRP2 membrane protein and into the apical chamber. […] Freshly isolated and prepared human neutrophils were then added to the basolateral side and allowed to transmigrate through the monolayer for 2 hours. The number of neutrophils migrated to the apical chamber (due to the HXA3 gradient) was then assayed by determination of myeloperoxidase activity (a neutrophil biomarker). Inhibition of transmigration is indicated by lower MPO activity in the apical chamber.

[1] = Feces stability (rat feces homogenate); format: in vitro ADME, Sprague-Dawley rat; settings: 10 μM, 37° C., 24 hours, predicted
Method: Feces stability. Immediately prior to the study, male Sprague-Dawley rat feces were collected overnight over a mix of dry and wet ice. Feces were then homogenized in phosphate buffer at pH 6.5 and filtered to remove particles. BT090 ([…]) was incubated in duplicate at 37° C. for a total of 24 hours in the freshly prepared rat feces homogenate. At selected time points (0.5, 2, 6 and 24 hours), a 25 μL aliquot was taken from the incubation mixtures and quenched with 225 μL of acetonitrile containing the internal standards (IS). Samples were then centrifuged to pellet the precipitated proteins and the supernatants were diluted 5-fold. The 0 hour samples were prepared in pre-quenched feces homogenate towards the end of the incubation period. All quenched samples were then submitted to bioanalysis for LC-MS/MS quantification.
Bioanalysis. BT090 samples were analyzed by LC-MS/MS using a Thermo Accela UPLC and a Thermo Q-Exactive mass spectrometer. The [M+H]+ adducts of the compounds and internal standards were monitored using positive mode electrospray ionization in exact mass mode. […]
Feces stability. […] All quenched samples are then submitted to bioanalysis for LC-MS/MS quantification.
Bioanalysis. […] The [M+H]+ adducts of the compounds and internal standards are monitored using positive mode electrospray ionization in exact mass mode. […]

[2] = Amount excreted in feces after oral dosing in rats; format: in vivo, Sprague-Dawley rats; settings: rat, individual animals
[3] = BT070 10 mg/kg orally, 0-24 h, 10 mg/kg

Which “dose-response of inhibition of neutrophil migration” value (human neutrophils; FIG. 1, result in words) does the source give for `CC[C@@H]1NC(=O)[C@H]([C@H](O)[C@H](C)CCCCCC(=O)O)N(C)C(=O)[C@H](C(C)C)N(C)C(=O)[C@H](CC(C)C)N(C)C(=O)[C@H](CC(C)C)N(C)C(=O)[C@@H](C)NC(=O)[C@H](C)NC(=O)[C@H](CC(C)C)N(C)C(=O)[C@H](C(C)C)NC(=O)[C@H](CC(C)C)N(C)C(=O)CN(C)C1=O` [BT070] here?
The value was “dose-responsive inhibition”.

And the “inhibition of neutrophil migration” value (human neutrophils; dose of 100 nM, result in words)?
The value was “exhibit inhibition”.

What about the “stability in fresh rat fecal homogenate” value [1] of the same molecule?
The value was “stable”.

What about the Amount in feces ([2]; BT070 10 mg/kg orally, 0-4 h) of the same molecule?
The Amount in feces was 561.4 ng.

What about the “% of dose excreted unchanged in feces” value [2, 3] of the same molecule?
The value was 44.6% and 9.0% and 72.2%.

What about the “Total amount excreted unchanged in feces” value [2, 3] of the same molecule?
Its value is 1212482.2 ng and 252675.5 ng and 1891835.1 ng.

And the Amount in feces ([2]; BT070 10 mg/kg orally, 4-8 h, 10 mg/kg)?
Its Amount in feces is 181805.0 ng and 875239.4 ng.

What about the Amount in feces ([2]; BT070 10 mg/kg orally, 8-24 h, 10 mg/kg) of the same molecule?
The Amount in feces was 1030677.2 ng and 252114.1 ng and 1016595.6 ng.

And the “Total amount excreted in feces” value ([2]; BT070 as breakdown product after BT051 10 mg/kg orally, 0-48 h)?
Its value is 36.9 µg and 33.4 µg and 41.4 µg and 38.5 µg.

And the Amount in feces ([2]; BT070 as breakdown product after BT051 10 mg/kg orally, 8-24 h)?
The Amount in feces was 31200 ng and 14300 ng and 10600 ng and 34800 ng.

What about the Amount in feces ([2]; BT070 as breakdown product after BT051 10 mg/kg orally, 24-48 h) of the same molecule?
Its Amount in feces is 5700 ng and 19100 ng and 30800 ng and 3700 ng.

Reference: patent publication US20240277798A1, “CYCLOSPORINE COMPOSITIONS AND METHODS OF USE” (Bacainn Biotherapeutics, Ltd., priority 2021, published 2024)
